Tests used:
Assay in all cases: biochemical
Type in all cases: biochemical
[1] = molecular target: 363 human kinases (including Aurora A/B/C) (Homo sapiens, UniProt Q13555); conditions: CAMK2g, [ATP] 2.5 µM; for remaining activity at 0.1 µM: 100 nM; for remaining activity at 0.1 µM / remaining activity at 0.5 µM: read-out: % Enzyme Activity (relative to DMSO controls)
Source text: (§1) However, the Aurora A/B selectivity ratios derived from our in vitro and in vivo data can be compared to prioritize inhibitors.

[2] = molecular target: 363 human kinases (including Aurora A/B/C) (Homo sapiens, UniProt P42684); conditions: ABL2/ARG, [ATP] 30 µM; for remaining activity at 0.1 µM: 100 nM; for remaining activity at 0.1 µM / remaining activity at 0.5 µM: read-out: % Enzyme Activity (relative to DMSO controls)
363 human kinases (including Aurora A/B/C) (Homo sapiens, UniProt P42684), sequence (P42684 whole entry): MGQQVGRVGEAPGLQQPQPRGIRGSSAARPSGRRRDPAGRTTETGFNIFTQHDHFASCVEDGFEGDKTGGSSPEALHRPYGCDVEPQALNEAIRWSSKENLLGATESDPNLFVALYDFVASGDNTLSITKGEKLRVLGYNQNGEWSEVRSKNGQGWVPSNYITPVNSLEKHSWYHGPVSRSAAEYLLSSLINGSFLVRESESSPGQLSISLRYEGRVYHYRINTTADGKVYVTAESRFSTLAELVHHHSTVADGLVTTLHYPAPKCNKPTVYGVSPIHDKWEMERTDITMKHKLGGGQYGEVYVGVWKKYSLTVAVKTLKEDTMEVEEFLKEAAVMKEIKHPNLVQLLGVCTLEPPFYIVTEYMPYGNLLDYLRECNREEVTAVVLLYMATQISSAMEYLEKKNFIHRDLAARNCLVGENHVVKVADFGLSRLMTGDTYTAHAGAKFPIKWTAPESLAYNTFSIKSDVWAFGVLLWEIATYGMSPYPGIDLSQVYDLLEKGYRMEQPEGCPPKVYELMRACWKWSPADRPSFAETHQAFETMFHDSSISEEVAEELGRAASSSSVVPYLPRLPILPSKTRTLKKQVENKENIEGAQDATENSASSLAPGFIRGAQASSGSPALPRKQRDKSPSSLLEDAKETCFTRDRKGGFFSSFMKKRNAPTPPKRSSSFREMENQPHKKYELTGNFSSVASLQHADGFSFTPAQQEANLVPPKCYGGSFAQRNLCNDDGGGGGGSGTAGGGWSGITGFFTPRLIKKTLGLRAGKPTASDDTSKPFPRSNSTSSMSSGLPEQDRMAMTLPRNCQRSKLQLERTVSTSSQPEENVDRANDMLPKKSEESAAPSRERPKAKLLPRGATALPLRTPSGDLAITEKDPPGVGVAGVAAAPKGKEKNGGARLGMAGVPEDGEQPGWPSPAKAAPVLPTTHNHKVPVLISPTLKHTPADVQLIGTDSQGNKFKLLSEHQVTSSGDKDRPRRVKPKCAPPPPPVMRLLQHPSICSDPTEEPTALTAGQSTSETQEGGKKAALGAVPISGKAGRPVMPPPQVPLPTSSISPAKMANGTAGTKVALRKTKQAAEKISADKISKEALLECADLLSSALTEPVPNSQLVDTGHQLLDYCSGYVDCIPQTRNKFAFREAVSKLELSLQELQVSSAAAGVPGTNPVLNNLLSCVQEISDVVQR
Source text: as §1

[3] = molecular target: 363 human kinases (including Aurora A/B/C) (Homo sapiens, UniProt O00238); conditions: ALK6/BMPR1B, [ATP] 10 µM; for remaining activity at 0.1 µM: 100 nM; for remaining activity at 0.1 µM / remaining activity at 0.5 µM: read-out: % Enzyme Activity (relative to DMSO controls)
363 human kinases (including Aurora A/B/C) (Homo sapiens, UniProt O00238), sequence (O00238 14-502): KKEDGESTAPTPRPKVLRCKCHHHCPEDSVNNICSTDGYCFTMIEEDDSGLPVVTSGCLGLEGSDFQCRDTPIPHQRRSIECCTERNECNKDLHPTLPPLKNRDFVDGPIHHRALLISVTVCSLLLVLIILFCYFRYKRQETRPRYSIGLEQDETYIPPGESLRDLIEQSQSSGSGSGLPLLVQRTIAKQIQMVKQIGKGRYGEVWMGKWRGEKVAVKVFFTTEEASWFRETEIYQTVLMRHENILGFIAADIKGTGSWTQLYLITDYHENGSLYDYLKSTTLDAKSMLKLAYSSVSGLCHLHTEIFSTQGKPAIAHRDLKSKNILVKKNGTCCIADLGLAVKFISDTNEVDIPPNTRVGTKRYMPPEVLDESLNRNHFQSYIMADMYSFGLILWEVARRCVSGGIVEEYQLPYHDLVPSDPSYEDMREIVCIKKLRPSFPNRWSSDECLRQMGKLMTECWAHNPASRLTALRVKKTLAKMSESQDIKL
Source text: as §1

[4] = molecular target: 363 human kinases (including Aurora A/B/C) (Homo sapiens, UniProt Q9UPE1); conditions: MSSK1/STK23; for remaining activity at 0.1 µM: 100 nM; for remaining activity at 0.1 µM / remaining activity at 0.5 µM: read-out: % Enzyme Activity (relative to DMSO controls)
363 human kinases (including Aurora A/B/C) (Homo sapiens, UniProt Q9UPE1), sequence (Q9UPE1 whole entry): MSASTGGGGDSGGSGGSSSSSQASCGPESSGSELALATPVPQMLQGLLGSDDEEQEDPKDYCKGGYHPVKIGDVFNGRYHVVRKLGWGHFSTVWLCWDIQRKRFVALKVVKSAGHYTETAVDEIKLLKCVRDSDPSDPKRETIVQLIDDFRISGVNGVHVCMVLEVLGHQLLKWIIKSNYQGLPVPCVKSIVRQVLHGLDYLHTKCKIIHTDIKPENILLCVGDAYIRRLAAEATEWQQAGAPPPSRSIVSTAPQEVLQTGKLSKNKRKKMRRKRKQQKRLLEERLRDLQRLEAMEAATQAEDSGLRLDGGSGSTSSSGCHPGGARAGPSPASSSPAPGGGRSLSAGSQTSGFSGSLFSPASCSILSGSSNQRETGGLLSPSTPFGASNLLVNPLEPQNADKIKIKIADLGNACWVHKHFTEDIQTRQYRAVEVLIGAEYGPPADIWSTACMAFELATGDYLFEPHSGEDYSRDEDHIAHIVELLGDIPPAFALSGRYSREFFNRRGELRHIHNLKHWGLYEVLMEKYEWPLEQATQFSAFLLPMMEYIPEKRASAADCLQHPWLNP
Source text: as §1

[5] = molecular target: 363 human kinases (including Aurora A/B/C) (Homo sapiens, UniProt P16234); conditions: PDGFRa; for remaining activity at 0.1 µM: 100 nM; for remaining activity at 0.1 µM / remaining activity at 0.5 µM: read-out: % Enzyme Activity (relative to DMSO controls)
363 human kinases (including Aurora A/B/C) (Homo sapiens, UniProt P16234), sequence (P16234 24-1089): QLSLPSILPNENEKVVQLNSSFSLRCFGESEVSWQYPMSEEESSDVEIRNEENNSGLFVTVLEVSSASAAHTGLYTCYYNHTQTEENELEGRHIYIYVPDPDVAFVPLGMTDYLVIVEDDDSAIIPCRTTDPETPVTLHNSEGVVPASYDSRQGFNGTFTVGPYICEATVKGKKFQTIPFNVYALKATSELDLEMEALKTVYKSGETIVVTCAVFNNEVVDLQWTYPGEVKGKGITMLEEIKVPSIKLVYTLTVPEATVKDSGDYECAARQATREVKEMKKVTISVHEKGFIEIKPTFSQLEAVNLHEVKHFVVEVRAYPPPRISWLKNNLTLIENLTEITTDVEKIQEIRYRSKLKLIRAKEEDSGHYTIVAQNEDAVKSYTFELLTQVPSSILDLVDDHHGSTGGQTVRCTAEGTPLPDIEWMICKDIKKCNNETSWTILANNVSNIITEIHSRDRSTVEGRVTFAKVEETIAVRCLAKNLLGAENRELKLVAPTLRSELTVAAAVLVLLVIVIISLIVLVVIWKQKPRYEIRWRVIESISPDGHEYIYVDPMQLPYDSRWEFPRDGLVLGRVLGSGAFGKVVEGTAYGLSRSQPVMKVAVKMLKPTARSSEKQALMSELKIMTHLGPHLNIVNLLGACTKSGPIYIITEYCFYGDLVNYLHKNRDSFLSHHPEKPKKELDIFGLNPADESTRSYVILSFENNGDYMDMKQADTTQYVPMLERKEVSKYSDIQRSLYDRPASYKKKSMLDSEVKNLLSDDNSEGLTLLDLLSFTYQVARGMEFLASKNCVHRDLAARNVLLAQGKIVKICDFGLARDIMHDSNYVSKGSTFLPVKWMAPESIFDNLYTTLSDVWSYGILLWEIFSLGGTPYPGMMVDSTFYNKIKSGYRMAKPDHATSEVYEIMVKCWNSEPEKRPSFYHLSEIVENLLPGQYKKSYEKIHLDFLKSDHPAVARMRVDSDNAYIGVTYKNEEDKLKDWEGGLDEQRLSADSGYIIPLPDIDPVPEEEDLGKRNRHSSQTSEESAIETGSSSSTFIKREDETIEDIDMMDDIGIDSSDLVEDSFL
Source text: as §1

[6] = molecular target: T1, 363 human kinases (including Aurora A/B/C) (Homo sapiens, UniProt Q13873); conditions: BMPR2, [ATP] 15 µM; for remaining activity at 0.1 µM: 100 nM; for remaining activity at 0.1 µM / remaining activity at 0.5 µM: read-out: % Enzyme Activity (relative to DMSO controls)
T1 sequence (Q13873 27-1038): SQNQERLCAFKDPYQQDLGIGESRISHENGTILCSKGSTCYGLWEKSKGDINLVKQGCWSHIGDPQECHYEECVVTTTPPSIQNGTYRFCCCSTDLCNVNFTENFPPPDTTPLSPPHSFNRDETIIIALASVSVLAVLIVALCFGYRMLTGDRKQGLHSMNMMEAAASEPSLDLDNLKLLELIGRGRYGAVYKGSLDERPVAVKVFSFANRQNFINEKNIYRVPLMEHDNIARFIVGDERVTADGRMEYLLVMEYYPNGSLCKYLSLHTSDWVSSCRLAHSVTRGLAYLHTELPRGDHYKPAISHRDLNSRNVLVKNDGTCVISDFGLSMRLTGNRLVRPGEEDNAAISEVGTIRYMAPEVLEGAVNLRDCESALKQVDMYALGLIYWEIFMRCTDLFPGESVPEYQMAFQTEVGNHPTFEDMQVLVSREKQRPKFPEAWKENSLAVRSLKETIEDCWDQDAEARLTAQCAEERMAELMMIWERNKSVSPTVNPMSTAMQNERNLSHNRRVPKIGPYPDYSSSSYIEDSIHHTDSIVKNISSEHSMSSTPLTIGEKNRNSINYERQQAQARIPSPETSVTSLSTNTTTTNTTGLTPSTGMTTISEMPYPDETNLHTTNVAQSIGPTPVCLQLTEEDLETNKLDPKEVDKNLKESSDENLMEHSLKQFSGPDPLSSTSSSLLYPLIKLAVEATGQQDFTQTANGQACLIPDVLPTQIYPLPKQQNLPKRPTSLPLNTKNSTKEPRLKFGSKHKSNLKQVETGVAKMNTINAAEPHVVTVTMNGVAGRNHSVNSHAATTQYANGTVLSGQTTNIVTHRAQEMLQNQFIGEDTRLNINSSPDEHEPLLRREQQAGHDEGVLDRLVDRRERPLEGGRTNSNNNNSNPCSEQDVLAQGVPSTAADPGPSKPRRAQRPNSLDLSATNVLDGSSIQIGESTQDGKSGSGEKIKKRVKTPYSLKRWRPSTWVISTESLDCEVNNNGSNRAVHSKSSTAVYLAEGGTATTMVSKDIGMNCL
Source text: as §1

[7] = molecular target: 363 human kinases (including Aurora A/B/C) (Homo sapiens, UniProt P07949); conditions: RET; for remaining activity at 0.1 µM: 100 nM; for remaining activity at 0.1 µM / remaining activity at 0.5 µM: read-out: % Enzyme Activity (relative to DMSO controls)
Source text: as §1

[8] = molecular target: 363 human kinases (including Aurora A/B/C) (Homo sapiens, UniProt P49674); conditions: CK1epsilon, [ATP] 50 µM; for remaining activity at 0.1 µM: 100 nM; for remaining activity at 0.1 µM / remaining activity at 0.5 µM: read-out: % Enzyme Activity (relative to DMSO controls)
363 human kinases (including Aurora A/B/C) (Homo sapiens, UniProt P49674), sequence (P49674 whole entry): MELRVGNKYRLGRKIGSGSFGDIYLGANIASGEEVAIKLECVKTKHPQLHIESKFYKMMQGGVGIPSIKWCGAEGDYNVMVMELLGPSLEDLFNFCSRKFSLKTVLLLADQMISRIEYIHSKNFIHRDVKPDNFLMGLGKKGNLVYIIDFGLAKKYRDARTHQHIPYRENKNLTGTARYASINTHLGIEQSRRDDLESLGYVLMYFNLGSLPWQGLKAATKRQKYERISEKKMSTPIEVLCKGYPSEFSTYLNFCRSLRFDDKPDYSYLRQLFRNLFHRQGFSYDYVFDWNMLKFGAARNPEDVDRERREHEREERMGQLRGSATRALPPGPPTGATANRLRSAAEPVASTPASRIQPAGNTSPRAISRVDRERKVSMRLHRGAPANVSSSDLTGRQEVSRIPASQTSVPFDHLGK
Source text: as §1

[9] = molecular target: 363 human kinases (including Aurora A/B/C) (Homo sapiens, UniProt Q8NEV4); conditions: MYO3A; for remaining activity at 0.1 µM: 100 nM; for remaining activity at 0.1 µM / remaining activity at 0.5 µM: read-out: % Enzyme Activity (relative to DMSO controls)
Source text: as §1

[10] = molecular target: T2, 363 human kinases (including Aurora A/B/C) (Homo sapiens, UniProt Q12866); conditions: c-MER, [ATP] 30 µM; for remaining activity at 0.1 µM: 100 nM; for remaining activity at 0.1 µM / remaining activity at 0.5 µM: read-out: % Enzyme Activity (relative to DMSO controls)
T2 sequence (Q12866 21-999): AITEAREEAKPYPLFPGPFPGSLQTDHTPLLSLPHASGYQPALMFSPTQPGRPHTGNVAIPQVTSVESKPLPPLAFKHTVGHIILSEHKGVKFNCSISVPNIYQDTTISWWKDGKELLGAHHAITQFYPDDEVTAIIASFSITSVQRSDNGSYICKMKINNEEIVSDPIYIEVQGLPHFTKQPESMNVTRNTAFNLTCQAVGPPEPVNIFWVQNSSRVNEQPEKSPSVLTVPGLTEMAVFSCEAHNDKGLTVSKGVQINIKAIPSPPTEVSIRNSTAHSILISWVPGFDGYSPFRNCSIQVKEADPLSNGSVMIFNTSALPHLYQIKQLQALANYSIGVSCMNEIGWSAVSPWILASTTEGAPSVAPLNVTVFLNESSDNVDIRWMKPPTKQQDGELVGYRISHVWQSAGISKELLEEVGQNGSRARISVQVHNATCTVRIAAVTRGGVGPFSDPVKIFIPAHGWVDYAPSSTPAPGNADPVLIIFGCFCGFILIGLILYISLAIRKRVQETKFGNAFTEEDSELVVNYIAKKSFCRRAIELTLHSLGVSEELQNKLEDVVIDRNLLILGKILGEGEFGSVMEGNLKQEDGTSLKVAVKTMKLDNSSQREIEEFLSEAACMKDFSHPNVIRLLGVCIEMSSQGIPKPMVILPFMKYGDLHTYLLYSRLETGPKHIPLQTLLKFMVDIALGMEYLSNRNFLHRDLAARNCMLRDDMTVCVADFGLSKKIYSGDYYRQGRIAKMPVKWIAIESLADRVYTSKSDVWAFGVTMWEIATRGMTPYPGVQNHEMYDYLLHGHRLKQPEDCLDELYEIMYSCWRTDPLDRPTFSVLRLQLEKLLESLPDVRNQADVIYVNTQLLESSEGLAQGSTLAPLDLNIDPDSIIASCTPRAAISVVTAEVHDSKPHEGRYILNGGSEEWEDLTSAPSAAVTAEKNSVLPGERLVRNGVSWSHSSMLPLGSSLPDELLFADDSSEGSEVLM
Source text: as §1

363 human kinases (including Aurora A/B/C) (Homo sapiens, UniProt Q13555), sequence (Q13555 whole entry): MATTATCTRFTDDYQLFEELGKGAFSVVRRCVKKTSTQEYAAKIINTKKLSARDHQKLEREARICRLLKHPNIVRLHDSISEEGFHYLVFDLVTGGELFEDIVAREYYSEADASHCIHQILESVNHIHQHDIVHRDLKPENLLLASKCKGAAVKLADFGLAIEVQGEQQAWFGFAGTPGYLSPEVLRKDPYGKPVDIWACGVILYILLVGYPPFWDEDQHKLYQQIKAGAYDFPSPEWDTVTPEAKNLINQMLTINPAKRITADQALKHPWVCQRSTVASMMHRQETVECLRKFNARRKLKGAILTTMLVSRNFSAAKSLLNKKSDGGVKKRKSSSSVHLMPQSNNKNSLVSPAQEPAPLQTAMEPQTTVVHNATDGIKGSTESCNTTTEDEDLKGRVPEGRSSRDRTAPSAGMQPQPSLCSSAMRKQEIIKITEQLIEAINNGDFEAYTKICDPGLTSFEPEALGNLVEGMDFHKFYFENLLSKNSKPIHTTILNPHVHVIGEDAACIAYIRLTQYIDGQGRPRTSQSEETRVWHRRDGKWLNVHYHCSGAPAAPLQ

**Q.** Which remaining activity at 0.1 µM [1] does the source give for CCn1cc(-c2ccnc3[nH]c(-c4cccc(CN(C)C)c4)cc23)c(-c2ccc(NC(=O)N(C)C)cc2)n1 [GSK1070916] here?
**A.** 94.5%

**Q.** And the remaining activity at 0.1 µM [2]?
**A.** 94.2%

**Q.** What about the remaining activity at 0.1 µM [3] of the same compound?
**A.** 89.2%

**Q.** And the remaining activity at 0.1 µM [4]?
**A.** 95.5%

**Q.** And the remaining activity at 0.1 µM [5]?
**A.** 94%

**Q.** And the remaining activity at 0.1 µM [6]?
**A.** 147%

**Q.** What about the remaining activity at 0.1 µM [7] of the same compound?
**A.** 97.8%

**Q.** And the remaining activity at 0.1 µM [8]?
**A.** 95.8%

**Q.** What about the remaining activity at 0.1 µM [9] of the same compound?
**A.** 92.9%

**Q.** What about the remaining activity at 0.1 µM [10] of the same compound?
**A.** 81.6%

**Q.** Which results are given for O=C(O)[C@]1(Cc2cccc(Nc3nccs3)n2)CC[C@@H](Oc2cccc(Cl)c2F)CC1 [MK-5108]?
**A.** remaining activity at 0.1 µM [1]: 91.1%; remaining activity at 0.5 µM ([1]; 500 nM): 94.4%; remaining activity at 0.1 µM [2]: 12.2%; remaining activity at 0.5 µM ([2]; 500 nM): 2.32%; remaining activity at 0.1 µM [3]: 101%; remaining activity at 0.5 µM ([3]; 500 nM): 46.2%; remaining activity at 0.1 µM [4]: 99%; remaining activity at 0.5 µM ([4]; 500 nM): 85%; remaining activity at 0.1 µM [5]: 97.1%; remaining activity at 0.5 µM ([5]; 500 nM): 92.6%; remaining activity at 0.1 µM [6]: 46.4%; remaining activity at 0.5 µM ([6]; 500 nM): 37%; remaining activity at 0.1 µM [7]: 17.4%; remaining activity at 0.5 µM ([7]; 500 nM): 3.79%; remaining activity at 0.1 µM [8]: 98.1%; remaining activity at 0.5 µM ([8]; 500 nM): 91.5%; remaining activity at 0.1 µM [9]: 90.8%; remaining activity at 0.5 µM ([9]; 500 nM): 131%; remaining activity at 0.1 µM [10]: 78.7%; remaining activity at 0.5 µM ([10]; 500 nM): 46.1%

**Q.** O=C(c1cccc(Cl)c1F)N1CCN(Cc2cccc(Nc3nccs3)n2)CC1 [MK-8745] was tested. Which “% Enzyme Activity (relative to DMSO controls)” value ([1]; 500 nM) did it give?
**A.** 92.25%

**Q.** What about the remaining activity at 0.5 µM ([1]; 500 nM) of the same compound?
**A.** 94.3%

**Q.** And the “% Enzyme Activity (relative to DMSO controls)” value ([2]; 500 nM)?
**A.** 85.19%

**Q.** What about the remaining activity at 0.5 µM ([2]; 500 nM) of the same compound?
**A.** 85.8%

**Q.** And the “% Enzyme Activity (relative to DMSO controls)” value ([3]; 500 nM)?
**A.** 91.78%

**Q.** And the remaining activity at 0.5 µM ([3]; 500 nM)?
**A.** 92%

**Q.** What about the “% Enzyme Activity (relative to DMSO controls)” value ([4]; 500 nM) of the same compound?
**A.** 93.46%

**Q.** And the remaining activity at 0.5 µM ([4]; 500 nM)?
**A.** 93.6%

**Q.** And the “% Enzyme Activity (relative to DMSO controls)” value ([5]; 500 nM)?
**A.** 99.66%

**Q.** What about the remaining activity at 0.5 µM ([5]; 500 nM) of the same compound?
**A.** 99.8%

**Q.** What about the “% Enzyme Activity (relative to DMSO controls)” value ([6]; 500 nM) of the same compound?
**A.** 98.44%

**Q.** And the remaining activity at 0.5 µM ([6]; 500 nM)?
**A.** 106%

**Q.** What about the “% Enzyme Activity (relative to DMSO controls)” value ([7]; 500 nM) of the same compound?
**A.** 84.03%

**Q.** And the remaining activity at 0.5 µM ([7]; 500 nM)?
**A.** 84.5%

**Q.** What about the “% Enzyme Activity (relative to DMSO controls)” value ([8]; 500 nM) of the same compound?
**A.** 93.98%

**Q.** And the remaining activity at 0.5 µM ([8]; 500 nM)?
**A.** 94.9%

**Q.** What about the “% Enzyme Activity (relative to DMSO controls)” value ([9]; 500 nM) of the same compound?
**A.** 66.28%

**Q.** What about the remaining activity at 0.5 µM ([9]; 500 nM) of the same compound?
**A.** 71.2%

**Q.** What about the “% Enzyme Activity (relative to DMSO controls)” value ([10]; 500 nM) of the same compound?
**A.** 41.19%

**Q.** What about the remaining activity at 0.5 µM ([10]; 500 nM) of the same compound?
**A.** 41.6%
